Assay [1] addresses T1, N-terminal GST-tagged recombinant human Flt3, residues 564-end (Homo sapiens, UniProt P36888).
T1 construct: recombinant human Flt3, residues 564-end; GST (N); purchased Upstate USA Inc, 706 Forest Street, Charlottesville, Va
T1 sequence (P36888 564-993 limits assumed): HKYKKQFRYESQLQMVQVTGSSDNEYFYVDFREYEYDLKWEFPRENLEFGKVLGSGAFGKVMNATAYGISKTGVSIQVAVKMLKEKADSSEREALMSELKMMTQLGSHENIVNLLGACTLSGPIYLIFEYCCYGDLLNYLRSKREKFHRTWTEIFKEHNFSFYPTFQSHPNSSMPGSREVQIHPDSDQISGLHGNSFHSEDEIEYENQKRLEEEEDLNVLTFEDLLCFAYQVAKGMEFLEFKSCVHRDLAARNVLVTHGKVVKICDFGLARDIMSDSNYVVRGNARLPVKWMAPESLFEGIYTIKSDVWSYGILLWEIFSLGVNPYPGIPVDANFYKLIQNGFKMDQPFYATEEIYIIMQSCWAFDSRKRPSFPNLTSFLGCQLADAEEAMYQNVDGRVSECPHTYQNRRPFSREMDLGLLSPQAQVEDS
In words: Flt3 kinase inhibition assay (33P-ATP filter assay). It counts as biochemical. On the procedure:
(§1) Compounds were assayed for Flt3 kinase inhibitory activity using N-terminal GST-tagged recombinant human Flt3, residues 564-end (Upstate USA Inc, 706 Forest Street, Charlottesville, Va.). Serial dilutions of compound were assayed in a final reaction volume of 25 μL by incubating a solution of the above Flt3 kinase (5-10 mU), 8 mM MOPS (3-(N-morpholino) propanesulfonic acid) pH 7.0, 0.2 mM EDTA (ethylenediamine tetracetic acid), 50 μM amino acid sequence EAIYAAPFAKKK (Upstate USA Inc, 706 Forest Street, Charlottesville, Va.), and 10 mM magnesium acetate and [γ-^33P-ATP] (specific activity of about 500 cpm/μmol, concentration as required). The reaction was initiated by the addition of the magnesium acetate and [γ-^33P-ATP] mixture. After incubation for 40 minutes at room temperature, the reaction was stopped by the addition of 5 μL of a 3% phosphoric acid solution. A 10 μL aliquote of the reaction was then spotted onto a P30 filtermat (PerkinElmer, Wellesley, Mass.) and washed three times for five minutes in 75 mM phosphoric acid and once in methanol prior to drying and scintillation counting. Inhibition of Flt3 activity was determined by comparison to assays that contained no inhibitor.

Assay [2] has as its system HCT116 cells. In words: Whole cell cytotoxicity assay, Sulforhodamine B. It counts as cell-based. Conditions: Homo sapiens, HCT-116, HCT116, 96 hours incubation, SRB; for pIC50: read-out: IC50 values in this assay (HCT116 cell growth); for GI50: read-out: GI50 HCT116 cell growth. On the procedure:
Human tumor-derived cell lines, HCT116 or MCF7 (ATCC) were plated in a 96 well plate in DMEM containing 10% fetal bovine serum and 2 mM L-glutamine at a density of 500 HCT116 cells or 1,000 MCF7 cells per well and incubated at 37° C., 5% CO2, for 24 hours prior to the addition of experimental compounds. Compounds were added using the dilution series indicated to duplicate plates and the cells were incubated in media plus compound for 96 hours. An additional plate was fixed in 10% TCA at the time of the addition of compound to provide a measurement of the cell population at time zero, the time of drug addition. Following the 96 hour incubation, cells were fixed in situ by gently aspirating off the culture media and then adding 50 ul of ice cold 10% TCA per well and incubation at 4° C. for 60 minutes. The plates were washed with tap water five times and allowed to air dry for 5 minute. 50 ul of a 0.4% (w/v) Sulforhodamine B solution in 1% (v/v) acetic acid was added per well and the cells were incubated for 30 minutes at room temperature. Following staining, plates were washed four times with 1% acetic acid to remove any unbound dye and then allowed to air dry for 5 minutes. The stain was solubilized with 100 ul of 10 mM Tris pH 10.5 per well and placed on an orbital rotator for 5 minutes. The absorbance was read at 570 nm. Percentage growth was calculated using the absorbance readings from the time zero plate (Tz) and the dilution series plate […] which included a column of cells grown in media without compound as a control (C) using the formulas:
[(Ti−Tz)/(C−Tz)]×100 for concentrations for which Ti>/=Tz
[(Ti−Tz)/Tz]×100 for concentrations for which Ti<Tz.
Three dose response parameters were calculated for each experimental agent. Growth inhibition of 50% (GI50) was calculated from [(Ti−Tz)/(C−Tz)]×100=50, which was the drug concentration resulting in a 50% reduction in the net protein increase (as measured by SRB staining) in control cells during the drug incubation. The drug concentration resulting in total growth inhibition (TGI) was calculated from Ti=Tz. The LC50 (concentration of drug resulting in a 50% reduction in the measured protein at the end of the drug treatment as compared to that at the beginning) indicating a net loss of cells following treatment ws calculated from [(Ti−Tz)/Tz]×100=−50. Values are calculated for each of these three parameters if the level of activity was reached; however, if the effect was not reached or was exceeded, the value for that parameter is expressed as greater or less than the maximum or minimum concentration tested.

The target of assay [3] is T2, N-terminal His-tagged human Src (Homo sapiens, UniProt P12931).
T2 construct: His (N); purchased Upstate USA Inc, 706 Forest Street, Charlottesville, Va
T2 sequence (P12931 whole entry): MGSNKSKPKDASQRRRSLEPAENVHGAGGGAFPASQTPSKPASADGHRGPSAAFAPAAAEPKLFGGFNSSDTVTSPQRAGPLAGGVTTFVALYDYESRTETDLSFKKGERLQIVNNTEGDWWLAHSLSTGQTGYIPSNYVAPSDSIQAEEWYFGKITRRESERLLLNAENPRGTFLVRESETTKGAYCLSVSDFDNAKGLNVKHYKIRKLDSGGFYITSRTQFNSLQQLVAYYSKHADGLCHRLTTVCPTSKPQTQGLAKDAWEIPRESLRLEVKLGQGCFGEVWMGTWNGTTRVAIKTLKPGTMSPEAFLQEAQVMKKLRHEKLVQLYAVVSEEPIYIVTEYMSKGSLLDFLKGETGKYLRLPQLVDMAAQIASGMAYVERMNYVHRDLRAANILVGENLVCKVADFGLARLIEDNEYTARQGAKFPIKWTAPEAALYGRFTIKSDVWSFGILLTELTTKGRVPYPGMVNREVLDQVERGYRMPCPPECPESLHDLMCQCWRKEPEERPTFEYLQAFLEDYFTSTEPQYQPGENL
Put plainly: Src kinase inhibition assay (33P-ATP filter assay). It counts as biochemical. The method, then: Compounds were assayed for Src kinase inhibitory activity using N-terminal His-tagged human Src (Upstate USA Inc, 706 Forest Street, Charlottesville, Va.). Serial dilutions of compound were assayed in a final reaction volume of 25 μL by incubating a solution of the above Src kinase (5-10 mU), 8 mM MOPS (3-(N-morpholino) propanesulfonic acid) pH 7.0, 0.2 mM EDTA (ethylenediamine tetracetic acid), 250 μM amino acid sequence KVEKIGEGTYGVVYK (Upstate USA Inc, 706 Forest Street, Charlottesville, Va.), and 10 mM magnesium acetate and [γ-^33P-ATP] (specific activity of about 500 cpm/μmol, concentration as required). The reaction was initiated by the addition of the magnesium acetate and [γ-^33P-ATP] mixture. After incubation for 40 minutes at room temperature, the reaction was stopped by the addition of 5 μL of a 3% phosphoric acid solution. A 10 μL aliquote of the reaction was then spotted onto a P30 filtermat (PerkinElmer, Wellesley, Mass.) and washed three times for five minutes in 75 mM phosphoric acid and once in methanol prior to drying and scintillation counting. Inhibition of Src activity was determined by comparison to assays that contained no inhibitor.

Assay [4] deals with T3, N-terminal His6-tagged recombinant human KDR, residues 790-end (Homo sapiens, UniProt P35968).
T3 construct: recombinant human KDR, residues 790-end; His6 (N); purchased Upstate USA Inc, 706 Forest Street, Charlottesville, Va
T3 sequence (P35968 790-1356 limits assumed): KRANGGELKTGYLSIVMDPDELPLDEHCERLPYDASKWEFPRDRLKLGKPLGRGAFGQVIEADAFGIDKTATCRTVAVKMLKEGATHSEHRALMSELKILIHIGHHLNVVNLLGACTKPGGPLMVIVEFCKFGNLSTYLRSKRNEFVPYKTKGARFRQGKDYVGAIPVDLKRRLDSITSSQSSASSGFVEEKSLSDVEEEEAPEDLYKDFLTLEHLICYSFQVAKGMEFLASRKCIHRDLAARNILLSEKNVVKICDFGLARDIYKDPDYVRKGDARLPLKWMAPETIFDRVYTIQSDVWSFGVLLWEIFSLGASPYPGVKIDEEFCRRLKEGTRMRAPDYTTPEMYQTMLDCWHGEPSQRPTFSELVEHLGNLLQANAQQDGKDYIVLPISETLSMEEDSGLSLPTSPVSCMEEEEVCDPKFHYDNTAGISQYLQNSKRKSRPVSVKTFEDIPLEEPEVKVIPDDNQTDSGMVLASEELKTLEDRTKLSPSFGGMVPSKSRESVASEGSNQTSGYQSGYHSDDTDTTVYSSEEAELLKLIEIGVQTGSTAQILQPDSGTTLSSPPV
Put plainly: KDR kinase inhibition assay (33P-ATP filter assay). It counts as biochemical. On the procedure: as §1, with “KDR” for “Flt3”, “His6-tagged” for “GST-tagged”, “KDR,” for “Flt3,”, “790-end” for “564-end”, “0.33 mg/mL myelin basic protein” for “50 μM amino acid sequence EAIYAAPFAKKK”

[5] abbreviates: group with IC50 greater than 100 nM.

Each structure is given as a SMILES string. pIC50: −log10 of the molar value.

As usually defined, the pIC50 is the IC50 on a negative log10 scale, so that one unit is a factor of ten. The term GI50 denotes the concentration at which growth is held to half of that of the control.

In the case of `Cc1cc(Nc2cc(N(C)CCN(C)C)nc(-c3c(C)cccc3C)n2)n[nH]1` [Example 195, N^4-(2-(dimethylamino)ethyl)-2-(2,6-dimethylphenyl)-N^4-methyl-N^6-(5-methyl-1H-pyrazol-3-yl)pyrimidine-4,6-diamine], in assay [1] (setting [5]), the pIC50 was no less than 6.00.
For `Cc1cccc(-c2nc(Nc3cc(C)[nH]n3)cc(NC3CCOCC3)n2)c1` [Compound 26, N^4-(5-methyl-1H-pyrazol-3-yl)-N^6-(tetrahydro-2H-pyran-4-yl)-2-m-tolylpyrimidine-4,6-diamine], the results for the pIC50 in assay [2], in assay [3] (setting [5]) and in assay [4] (40 minutes at room temperature) were 5.00 to 6.00, no less than 6.00 and no less than 7.00, respectively.
On to `CCc1ccccc1-c1nc(Nc2cc(C)[nH]n2)cc(N(C)CCOC)n1` [Example 187, 2-(2-ethylphenyl)-N^4-(2-methoxyethyl)-N^4-methyl-N^6-(5-methyl-1H-pyrazol-3-yl)pyrimidine-4,6-diamine], for which the pIC50 was no less than 7.00 in assay [1] (40 minutes at room temperature), no less than 7.00 in assay [3] (40 minutes at room temperature) and no less than 6.00 in assay [4] (setting [5]).
For the compound `COCCN(C)c1cc(Nc2cc(C)[nH]n2)nc(-c2ccccc2OC)n1` [Compound 69, N^4-(2-methoxyethyl)-2-(2-methoxyphenyl)-N^4-methyl-N^6-(5-methyl-1H-pyrazol-3-yl)pyrimidine-4,6-diamine], the values for the pIC50 in assay [1] (setting [5]), in assay [2] and in assay [4] (setting [5]) were no less than 6.00, 5.00 to 6.00 and no less than 6.00, respectively.
`COCCN(C)c1cc(Nc2cc(C)[nH]n2)nc(-c2ccc(C(C)(C)C)cc2)n1` [Compound 115, 2-(4-tert-butylphenyl)-N^4-(2-methoxyethyl)-N^4-methyl-N^6-(5-methyl-1H-pyrazol-3-yl)pyrimidine-4,6-diamine]: the pIC50 in assay [1] (40 minutes at room temperature) is no less than 7.00; in assay [2], 5.00 to 6.00; in assay [3] (setting [5]), no less than 6.00.
Take `COc1ccccc1-c1nc(Nc2cc(C)[nH]n2)cc(NC2CCOCC2)n1` [Compound 30, 2-(2-methoxyphenyl)-N^4-(5-methyl-1H-pyrazol-3-yl)-N^6-(tetrahydro-2H-pyran-4-yl)pyrimidine-4,6-diamine]: in assay [4] (setting [5]), the pIC50 is no less than 6.00.
Consider `COCCN(C)c1cc(Nc2cc(C)[nH]n2)nc(-c2cc(C)ccc2C)n1` [Example 202, 2-(2,5-dimethylphenyl)-N^4-(2-methoxyethyl)-N^4-methyl-N^6-(5-methyl-1H-pyrazol-3-yl)pyrimidine-4,6-diamine], for which the pIC50 in assay [1] (40 minutes at room temperature) was no less than 7.00; in assay [2], 5.00 to 6.00.
On to `Cc1ccc(C)c(-c2nc(Nc3cc(C)[nH]n3)cc(N(C)CCN(C)C)n2)c1` [Example 207, N^4-(2-(dimethylamino)ethyl)-2-(2,5-dimethylphenyl)-N^4-methyl-N^6-(5-methyl-1H-pyrazol-3-yl)pyrimidine-4,6-diamine], for which the pIC50 in assay [1] (40 minutes at room temperature) is no less than 7.00; in assay [4] (setting [5]) it was no less than 6.00.
Take `Cc1cc(Nc2cc(N3CCN(C)CC3)nc(-c3ccc(S(C)(=O)=O)cc3)n2)n[nH]1` [Compound 95, N-(5-methyl-1H-pyrazol-3-yl)-6-(4-methylpiperazin-1-yl)-2-(4-(methylsulfonyl)phenyl)pyrimidin-4-amine]: in assay [2], the GI50 was no more than 1000 nM.
In the case of `COc1ccccc1-c1nc(Nc2cc(C)[nH]n2)cc(N(C)CCN(C)C)n1` [Compound 56, N^4-(2-(dimethylamino)ethyl)-2-(2-methoxyphenyl)-N^4-methyl-N^6-(5-methyl-1H-pyrazol-3-yl)pyrimidine-4,6-diamine], the figures for the negative-log IC50 (pIC50) in assay [1] (40 minutes at room temperature) and in assay [4] (setting [5]) were no less than 7.00 and no less than 6.00, respectively. In addition, in assay [2], the GI50 was no more than 1000 nM.
As to `Cc1cc(Nc2cc(N3CCN(C)CC3)nc(-c3cc(C(F)(F)F)cc(C(F)(F)F)c3)n2)n[nH]1` [Example 173, 2-(3,5-bis(trifluoromethyl)phenyl)-N-(5-methyl-1H-pyrazol-3-yl)-6-(4-methylpiperazin-1-yl)pyrimidin-4-amine], the pIC50 in assay [1] (40 minutes at room temperature) was no less than 7.00. For the same compound, the concentration for 50% growth inhibition (GI50) in assay [2] is no more than 1000 nM.
On to `Cc1cc(Nc2cc(N(C)CCN(C)C)nc(-c3cccc4c3OCCO4)n2)n[nH]1` [Example 143, 2-(2,3-dihydrobenzo[b][1,4]dioxin-5-yl)-N^4-(2-(dimethylamino)ethyl)-N^4-methyl-N^6-(5-methyl-1H-pyrazol-3-yl)pyrimidine-4,6-diamine], for which the negative-log IC50 (pIC50) in assay [1] (40 minutes at room temperature) is no less than 7.00; in assay [2], 5.00 to 6.00; in assay [4] (setting [5]), no less than 6.00.
Take `Cc1cc(Nc2cc(N3CCN(C)CC3)nc(-c3c(C)cccc3C)n2)n[nH]1` [Example 194, 2-(2,6-dimethylphenyl)-N-(5-methyl-1H-pyrazol-3-yl)-6-(4-methylpiperazin-1-yl)pyrimidin-4-amine]: the pIC50 in assay [1] (setting [5]) was no less than 6.00.
On the same count and under the same terms, the figure for `Cc1cc(Nc2cc(NC3CCOCC3)nc(-c3c(C)cccc3C)n2)n[nH]1` [Example 199, 2-(2,6-dimethylphenyl)-N^4-(5-methyl-1H-pyrazol-3-yl)-N^6-(tetrahydro-2H-pyran-4-yl)pyrimidine-4,6-diamine] is no less than 6.00.

For the origin of these results see patent US20090029992A1, “SUBSTITUTED PYRAZOLE COMPOUNDS” (priority 2007, published 2009).
